Reference: patent publication US20260000655A1, “PHARMACEUTICAL COMPOSITION FOR USE IN PREVENTION OR TREATMENT OF LIFESTYLE-RELATED DISEASE” (priority 2022, published 2026)

Legend:
[1] = test system: adenosine monophosphate-activated protein kinase (AMPK); experiment: Activation of AMPK (p-AMPK/AMPK, Western blotting) in myotube cell model L6-GLUT4myc; type: cell-based, rat; conditions: HPH-15 at 1/200th the concentration of metformin (2 mM), 24 hours
Text: The tissues involved in glucose uptake and glucose metabolism are mainly the muscle, the liver, and the fat. Thus, using a cell model of each tissue, the relationship between HPH-15 and activation of adenosine monophosphate-activated protein kinase (AMPK) was examined. Note that AMPK is known as a therapeutic target for diabetes. AMPK acts as an energy sensor, and when it detects a decrease in ATP serving as an intracellular energy source, it suppresses the synthesis of glucose, fats, and proteins and produces ATP. Exercise therapy for diabetes is based on this mechanism. Further, AMPK has been drawing attention as a factor that improves insulin resistance.
As a muscle cell model to be used, rat myoblast cell line L6-GLUT4myc (myoblasts expressing myc-tagged GLUT4) was cultured in a minimal essential medium a-MEM (10% FBS) and differentiated into myotubes. Differentiation into myotubes was performed by culturing L6-GLUT4 cells in a-MEM (10% FBS) and then changing the medium to a-MEM (2% FBS), followed by culturing for 6 days. Human HepG2 cell line was used as a liver cell model. As an adipocyte model to be used, mouse 3T3-L1 preadipocyte cell line was differentiated into adipocytes. Differentiation into adipocytes was performed as follows. […]
Next, bands of AMPK and p-AMPK were quantified using ImageJ to determine a ratio of activated AMPK relative to AMPK (p-AMPK/AMPK).

[2] = test system: myotube cell model L6-GLUT4myc, liver cell model HepG2 cells, adipocyte model 3T3-L1; experiment: Production of lactic acid in cells; type: cell-based, rat, human, mouse; conditions: HPH-15 10 μM or 50 μM vs metformin 2 mM; 24 hours
Description: There is a concern that a therapeutic drug of diabetes may cause lactic acidosis due to the production of lactic acid, requiring caution, especially for patients with chronic renal failure or the elderly. Therefore, the production of lactic acid when HPH-15 was used was examined.
The myotube cell model L6-GLUT4myc, the liver cell model HepG2 cells, and the adipocyte model 3T3-L1 used in Example 1 were each seeded onto a 24-well plate (1×10^5 cells/well, […] of culture liquid) and cultured overnight. Then, a DMSO solution (1%) containing HPH-15 (final concentration: 10 μM or 50 μM) or metformin (final concentration: 2 mM) was added to the medium, and the cells were further cultured for 24 hours. As a control, only DMSO solution (1%) was added, and the cells were cultured for 24 hours in the same manner. Next, the amount of lactic acid accumulated in the cells was measured using the Lactate Assay Kit-WST (Dojindo Laboratories).

[3] = test system: liver cell model HepG2 cells; experiment: Cytotoxicity (MTT reagent); type: cell-based, human; conditions: HPH-15 1 μM, 10 μM or 50 μM, 24 hours
Description: It was examined whether using HPH-15 as a drug caused any cytotoxicity.
The myotube cell model L6-GLUT4myc, the liver cell model HepG2 cells, and the adipocyte model 3T3-L1 used in Example 1 were each seeded onto a 24-well plate (1×10^5 cells/well, […] of culture liquid) and cultured overnight. Then, a DMSO solution (1%) containing HPH-15 (final concentration: 1 μM, 10 μM or 50 μM) was added to the medium, and the cells were further cultured for 24 hours. As a control, only DMSO solution (1%) was added, and the cells were cultured for 24 hours in the same manner. Next, […] of MTT reagent (3-(4,5-dimethyl-2-thiazolyl)-2,5-diphenyl-2H-tetrazolium bromide: 1.1 mg/mL: Dojindo Laboratories) was added to each well, and the cells were further cultured for 4 hours. After collecting the precipitated crystals, the supernatant was removed and DMSO ([…]) was added to completely dissolve the crystals. Cytotoxicity was evaluated by measuring the absorbance (550 nm) of the solution and determining the number of viable cells.

[4] = test system: high-fat diet-induced obesity model mice; experiment: H&E staining of mouse tissue; type: in vivo
Description: High-fat diet-induced obesity model mice were prepared in the same manner as in Example 7. Note that the high-fat diet-induced obesity model mice develop liver damage and are thus used as a liver disease model. Then, HPH-15 (10 mg/kg or 100 mg/kg, […]) dissolved in olive oil or metformin (300 mg/kg, […]) was orally administered once a day for 28 days. Olive oil alone was administered as a control. After administration of each for 28 days, the liver, epididymis, and muscle of the high-fat diet-induced obesity model mice were stained with H&E and observed using a microscope. The results of H&E staining of the liver are shown in FIG. 12A, the results of H&E staining of the epididymis are shown in FIG. 12B, and the results of H&E staining of the muscle are shown in FIG. 12C.

[5] = HPH-15 10 or 100 mg/kg orally 28 days

CC(C)(C)SCCNC(=S)c1cccc(C(=S)NCCSC(C)(C)C)n1 [HPH-15]
AMPK activation (p-AMPK/AMPK) compared to when metformin was used [1]: approximately 75% | production of lactic acid [2]: equal to or less than that by metformin | cytotoxicity (number of viable cells) [3]: no cytotoxicity was confirmed | visible fat in liver tissue and epididymal adipose tissue (H&E) ([4]; HPH-15 100 mg/kg orally 28 days): almost no fat was visible | cell area ratio in the epididymal adipose tissue (size of adipocytes, H&E) [4, 5]: reducing the cell area ratio | macrophage infiltration in epididymal adipose tissue (H&E) [4, 5]: does not cause macrophage infiltration | percentage of fat in the liver tissue (H&E) ([4]; HPH-15 10 or 100 mg/kg orally 28 days, compared to the control and metformin 300 mg/kg): significantly reducing the percentage of fat in the liver tissue | tissue changes or toxicity in the muscle (H&E) ([4]; orally once a day 28 days, FIG. 12C): no tissue changes or toxicity was observed
